This is an account of results in patent US5358950A, “Triazolopyrimidine derivatives which are angiotensin II receptor antagonists” (Laboratoires UPSA, priority 1991, dated 1994).

The test system of this experiment is adrenal angiotensin II receptors. Nature of the experiment: Displacement of radiolabelled ligand [^125 I]-SIAII specifically bound to rat adrenal angiotensin II receptors. The experiment is classed as binding. Particulars: rat adrenal homogenate, 60 min at 25° C. As to the method:
The affinity of the products of the examples for angiotensin II receptors is assessed by a technique of displacement of a radiolabelled ligand specifically bound to the adrenal angiotensin II receptors in the rat.
An aliquot of a rat adrenal homogenate is incubated in the presence of a single concentration of [^125 I]-SIAII(Sar^1 Tyr^4, Ile^8 -angiotensin II) which is an angiotensin II receptor antagonist, and two concentrations of competitive agents ([…]) for 60 min at 25° C.
The reaction is stopped by adding buffer, followed by rapid filtration through glass-paper filters. The non-specific binding is determined in the presence of angiotensin II.
The results are expressed, for the concentrations tested, as a percentage displacement of the radiolabelled ligand specifically bound to the adrenal angiotensin II receptors.

`CCCCc1nc(C)n2c(=O)[nH]nc2c1Cc1ccc(-c2ccccc2-c2nnn[nH]2)cc1` [Example 36, 7-n-Butyl-5-methyl-8-{[2'-(5-tetrazolyl)-4-biphenylyl]methyl}-1,2,4-triazolo[4,3-c]pyrimidin-3(2H)-one]: the “% displacement of the labelled ligand” value turned out to be 65% (1E-5M, 10 µM) and 43% (1E-7M, 0.1 µM).

On to `CCCCc1nc(C)n2[nH]c(=O)nc2c1Cc1ccc(-c2ccccc2-c2nnn[nH]2)cc1` [Example 112, 7-n-Butyl-5-methyl-8-{[2'(5-tetrazolyl)-4-biphenylyl]methyl}-1,2,4-triazolo[1,5-c]pyrimidin-2(3H)-one], for which the “% displacement of the labelled ligand” value reads like this: (1E-5M, 10 µM) 60%; (1E-7M, 0.1 µM) 41%.

In the case of `CCc1nc(C)n2[nH]c(=O)nc2c1Cc1ccc(-c2ccccc2-c2nnn[nH]2)cc1` [Example 97, 7-Ethyl-5-methyl-8-{[2'(5-tetrazolyl)-4-biphenylyl]methyl}-1,2,4-triazolo[1,5-c]pyrimidin-2(3H)-one], the “% displacement of the labelled ligand” value runs as follows: (1E-5M, 10 µM) 60%; (1E-7M, 0.1 µM) 38%.

In the case of `CCCc1nc(C)n2nc(NC)nc2c1Cc1ccc(-c2ccccc2-c2nnn[nH]2)cc1` [Example 80, 7-n-Propyl-5-methyl-2-methylamino-8-{[2'-(5-tetrazolyl)-4-biphenylyl]methyl}-1,2,4-triazolo [1,5-c]pyrimidine], the “% displacement of the labelled ligand” value (1E-5M, 10 µM) is on record as 74% and the “% displacement of the labelled ligand” value (1E-7M, 0.1 µM) worked out at 59%.

Regarding `CCCc1nc(C)n2c(=O)n(CCO)nc2c1Cc1ccc(-c2ccccc2-c2nnn[nH]2)cc1` [Example 25, 2-[7-n-Propyl-5-methyl-3-oxo-8-{[2'-(5-tetrazolyl)-4-biphenylyl]methyl}-2,3-dihydro-1,2,4-triazolo[4,3-c]pyrimidin-2-yl]ethanol], the “% displacement of the labelled ligand” value runs as follows: (1E-5M, 10 µM) 68%; (1E-7M, 0.1 µM) 54%.

In the case of `CCCc1nc(C)n2c(=O)[nH]nc2c1Cc1ccc(-c2ccccc2-c2nnn[nH]2)cc1` [Example 19, 7-n-Propyl-5-methyl-8-{[2'-(5-tetrazolyl)-4-biphenylyl]methyl}-1,2,4-triazolo[4,3-c]pyrimidin-3(2H)-one], the “% displacement of the labelled ligand” value (1E-5M, 10 µM) is recorded as 66% and the “% displacement of the labelled ligand” value (1E-7M, 0.1 µM) is recorded as 48%.

For the compound `CCCc1nc(C)n2nc(N)nc2c1Cc1ccc(-c2ccccc2-c2nnn[nH]2)cc1` [Example 107, 7-n-Propyl-5-methyl-2-amino-8-{[2'-(5-tetrazolyl)-4-biphenylyl]methyl}-1,2,4-triazolo[1,5-c]pyrimidine], the “% displacement of the labelled ligand” value is recorded as 71% (1E-5M, 10 µM) and 58% (1E-7M, 0.1 µM).

Turning to `CCCc1nc(C)n2c(S)nnc2c1Cc1ccc(-c2ccccc2-c2nnn[nH]2)cc1` [Example 68, 7-n-Propyl-5-methyl-3-mercapto-8-{[2'-(5-tetrazolyl)-4-biphenylyl]methyl}-1,2,4-triazolo[4,3-c]pyrimidine], the “% displacement of the labelled ligand” value is 67% (1E-5M, 10 µM) and 33% (1E-7M, 0.1 µM).

On to `CCCc1nc(C)n2ncnc2c1Cc1ccc(-c2ccccc2-c2nnn[nH]2)cc1` [Example 71, 7-n-propyl-5-methyl-8-{[2'-(5-tetrazolyl)-4-biphenylyl]methyl}-1,2,4-triazolo[1,5-c]pyrimidine], for which the “% displacement of the labelled ligand” value reads like this: (1E-5M, 10 µM) 73%; (1E-7M, 0.1 µM) 60%.

Regarding `CCCc1nc(C)n2[nH]c(=O)nc2c1Cc1ccc(-c2ccccc2-c2nnn[nH]2)cc1` [Example 20, 7-n-Propyl-5-methyl-8-{[2'-(5-tetrazolyl)-4-biphenylyl]methyl}-1,2,4-triazolo[1,5-c]pyrimidin-2(3H)-one], the “% displacement of the labelled ligand” value is on record as 60% (1E-5M, 10 µM) and 45% (1E-7M, 0.1 µM).

For the compound `CCc1nc(C)n2nc(C)nc2c1Cc1ccc(-c2ccccc2-c2nn[nH]n2)cc1` [Example 90, 7-Ethyl-2 , 5-dimethyl-8-{[2 '-(5-tetrazolyl)-4-biphenylyl]methyl}-i, 2,4-triazolo[1,5-c]pyrimidine], the “% displacement of the labelled ligand” value (1E-5M, 10 µM) amounted to 63% and the “% displacement of the labelled ligand” value (1E-7M, 0.1 µM) came out at 48%.

Turning to `CCCc1nc(C)n2nc(CC(=O)OCC)nc2c1Cc1ccc(-c2ccccc2-c2nnn[nH]2)cc1` [Example 146, Ethyl [7-n-propyl-5-methyl-8-{[2'-(5-tetrazolyl)-4-biphenylyl]methyl}-1,2,4-triazolo[1,5-c]pyrimidin-2-yl]acetate], the “% displacement of the labelled ligand” value (1E-5M, 10 µM) turned out to be 74% and the “% displacement of the labelled ligand” value (1E-7M, 0.1 µM) worked out at 56%.

Regarding `CCCc1nc(C)n2nc(C)nc2c1Cc1ccc(-c2ccccc2-c2nnn[nH]2)cc1` [Example 74, 7-n-Propyl-2,5-dimethyl-8-{[2'-(5-tetrazolyl)-4-biphenylyl}methyl]-1,2,4-triazolo[1,5-c]pyrimidine], the “% displacement of the labelled ligand” value was 69% (1E-5M, 10 µM) and 54% (1E-7M, 0.1 µM).

`CCCc1nc(C)n2nc(S)nc2c1Cc1ccc(-c2ccccc2-c2nnn[nH]2)cc1` [Example 42, 7-n-propyl-5-methyl-2-mercapto-8-{[2'-(5-tetrazolyl)-4-biphenylyl]methyl}-1,2,4-triazolo[1,5-c]pyrimidine]: the “% displacement of the labelled ligand” value runs as follows: (1E-5M, 10 µM) 75%; (1E-7M, 0.1 µM) 46%.

With `CCCc1nc(C)n2nc(CC)nc2c1Cc1ccc(-c2ccccc2-c2nnn[nH]2)cc1` [Example 78, 7-n-Propyl-5-methyl-8-{[2 '(5-tetrazolyl)-4-biphenylyl]methyl}-2-ethyl-1,2,4-triazolo[1,5-c]pyrimidine], the “% displacement of the labelled ligand” value runs as follows: (1E-5M, 10 µM) 67%; (1E-7M, 0.1 µM) 52%.

`CCCc1nc(C)n2nc(C(=O)OCC)nc2c1Cc1ccc(-c2ccccc2-c2nnn[nH]2)cc1` [Example 109, Ethyl 7-n-propyl-5-methyl-8-{[2'-(5-tetrazolyl)-4-biphenylyl]methyl}-1,2,4-triazolo[1,5-c]pyrimidine-2-carboxylate]: the “% displacement of the labelled ligand” value is, setting by setting: (1E-5M, 10 µM) 67%; (1E-7M, 0.1 µM) 46%.

`CCCc1nc(CC)n2[nH]c(=O)nc2c1Cc1ccc(-c2ccccc2-c2nnn[nH]2)cc1` [Example 138, 7-n-Propyl-5-ethyl-8-{[2'-(5-tetrazolyl)-4-biphenylyl]methyl}-1,2,4-triazolo[1,5-c]pyrimidin-2(3H)-one]: the “% displacement of the labelled ligand” value reads like this: (1E-5M, 10 µM) 61%; (1E-7M, 0.1 µM) 17%.

As to `CCCc1nc(C)n2nc(COC)nc2c1Cc1ccc(-c2ccccc2-c2nnn[nH]2)cc1` [Example 152, 7-n-Propyl-5-methyl-2-methoxymethyl-8-{[2'-(5-tetrazolyl)-4-biphenylyl]methyl}-1,2,4-triazolo[1,5-c]pyrimidine], the “% displacement of the labelled ligand” value is 69% (1E-5M, 10 µM) and 57% (1E-7M, 0.1 µM).
